“Also recorded” adds a separate entry of the source.
Key:
HDL, LDL and VLDL = test: Lipoprotein surface charge after injection of PI or PC vesicles into rabbits (agarose gel electrophoresis); format: in vivo, rabbit; conditions: intravenous injection of vesicles, fasted rabbit
Experimental: (§1) 1-palmitoyl-2-oleoyl-phosphatidylcholine (PC) and 1-palmitoyl-2-oleoyl phosphatidylinositol (PI) vesicles are prepared by drying to completion 40 μmol of each lipid into a 12×75 mm culture tube under N2. The lipids are solubilized in 3 mL of sterile saline comprising 150 mM sodium chloride (pH 7.2) by sonication for 1 minute at constant duty cycle. The vesicles are incubated at 37° C. for 10 minutes and then sonicated at a high output for 4 minutes in 10° C. water bath under N2. In order to determine the rate of clearance of cholesterol from the test animals (rabbits), a radioactive tracer is added to the vesicle preparations prior to injection into the rabbit. 200 μL of 1 μCi/μmL [^3H]-FC is dried into a 12×75 mm culture tube with 40 μmol of PI or POPC. 3 ml of PBS is added to the dried lipids and the mixture is sonicated as described above. This tracer/vesicle preparation is injected and then 5 min later, the PI or PC vesicles were injected and blood is sampled as described below.
(§2) Male New Zealand white rabbits (3.5-4.0 kg) are fasted for 12 hours prior to injection and remain fasted until after data for the final time point is taken. Rabbits have free access to water during this time. A catheter is inserted into the marginal ear vein and blood samples are collected into tubes containing 7.5% (K3) EDTA solution at the desired time points. A pre-injection blood sample is taken and the vesicle solution of either PI (n=4), or PC (n=2) or saline (n=1) is injected into the marginal ear vein. A sample of blood is removed at 10, 30 min, 1, 3, 6 and 24 h after the injection. All blood samples are placed on ice and then centrifuged at 3000 rpm for 15 min at 4° C. to separate the plasma. In order to ensure that lecithin:cholesterol acyl transferase (LCAT) is inhibited in the stored plasma, iodoacetamide (150 mM) is added to plasma samples as taught by Guerin et al. (1994).
Lipoprotein fractions are isolated by sequential ultracentrifugation (VLDL+IDL, d<1.019 g/mL; LDL, d=1.019-1.063 g/mL; and HDL, d=1.063-1.21 g/mL) as known to one of skill in the art, and lipoprotein lipid composition (total cholesterol, free cholesterol (FC), and triglyceride (TG) concentrations) are determined enzymatically using kits from Roche Diagnostic (Laval, PQ). An aliquot of each lipoprotein isolated is dialysed into PBS and its surface charge characteristics were determined by electrophoresis on pre-cast 0.5% agarose gels using the procedure of Sparks and Phillips (1992).
Referring now to FIG. 1, there is illustrated the effect of injection of PI and PC vesicles on the estimated surface potential of HDL, LDL, and VLDL proteins in vivo. […] PC, which is a neutral phospholipid, may also bind to the lipoproteins. However since PC is a neutral phospholipid, no significant change in the migration of the lipoproteins is observed. The increased migratory property of lipoproteins in a gel peaks following injection of PI and returns to normal by about 24 hours. […] Similarly, the VLDL fraction is estimated to have an initial surface potential of about −8.8 mV, which increases to about −11.2 mV after 10 minutes. LDL is estimated to have an initial surface potential of about −3.9 mV, and peaks about 60 min after the PI injection at about −8.0 mV.

Human plasma = test: Plasma clotting time (prothrombin time); format: biochemical; conditions: human plasma incubated with increasing amounts of vesicles, 24 h at 4° C.
Experimental: Referring now to FIG. 11, there is shown the effect of charged lipid on blood coagulation. Human plasma was incubated with various amounts of uncharged vesicles, phosphatidylcholine (PC) or anionic vesicles, phosphatidylinositol (PI), for 24 h at 4° C. Prothrombin time was then measured with the use of a commercially available kit.

[1] = biological target: T1, lecithin:cholesterol acyltransferase (LCAT) (Oryctolagus cuniculus, UniProt P53761); test: Plasma cholesterol esterification by LCAT after injection of PC or PI; format: in vivo, rabbit; conditions: after injection of vesicles
T1 construct: endogenous LCAT activity is reduced to about 18% that of normal; from tissue; host or cells: plasma of PI- or PC-injected rabbits
T1 sequence (P53761 25-440): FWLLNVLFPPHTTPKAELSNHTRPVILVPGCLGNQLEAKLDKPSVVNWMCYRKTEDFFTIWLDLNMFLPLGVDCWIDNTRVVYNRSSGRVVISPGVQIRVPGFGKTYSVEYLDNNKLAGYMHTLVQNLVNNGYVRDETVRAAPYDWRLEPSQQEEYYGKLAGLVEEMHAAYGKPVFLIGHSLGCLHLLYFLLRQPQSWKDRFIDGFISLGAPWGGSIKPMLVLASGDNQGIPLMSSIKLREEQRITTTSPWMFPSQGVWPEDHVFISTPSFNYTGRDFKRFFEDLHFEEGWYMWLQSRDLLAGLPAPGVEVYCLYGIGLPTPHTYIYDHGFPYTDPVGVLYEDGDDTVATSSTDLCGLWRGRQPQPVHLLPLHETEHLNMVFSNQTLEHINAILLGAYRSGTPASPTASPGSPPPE
Experimental: Male New Zealand white rabbits (3.5-4.0 kg) are fasted for 12 hours prior to injection and remain fasted until after data for the final time point is taken. Rabbits have free access to water during this time. A catheter is inserted into the marginal ear vein and blood samples are collected into tubes containing 7.5% (K3) EDTA solution at the desired time points. A pre-injection blood sample is taken and the vesicle solution of either PI (n=4), or PC (n=2) or saline (n=1) is injected into the marginal ear vein. A sample of blood is removed at 10, 30 min, 1, 3, 6 and 24 h after the injection. All blood samples are placed on ice and then centrifuged at 3000 rpm for 15 min at 4° C. to separate the plasma. In order to ensure that lecithin:cholesterol acyl transferase (LCAT) is inhibited in the stored plasma, iodoacetamide (150 mM) is added to plasma samples as taught by Guerin et al. (1994). The effect of PI on LCAT activity is examined using plasma samples that are not treated with iodoacetamide. 400 μL aliquots of plasma for each time point are incubated for 30 min with 10 μCi of [^3H]-FC on filter paper discs (Dobiasova et al., 1991) at 37° C. and the reaction is terminated with the addition of 2 mL ethanol. Reaction products are extracted in hexane and the amount of [^3H] associated with CE and FC is determined by thin layer chromatography. […] However, endogenous LCAT activity is reduced to about 18% that of normal (PC injected control) after about 10 min post injection of PI. Also, PI injection reduces the fractional rate of cholesterol esterification from about 45% to about 8%, of initial values, per hour. […] To investigate the effect of PI on the production and transport of CE in the plasma, the amount of radioactive CE was measured at each time point (data not shown). […] Rather it appears that PI may modify intravascular cholesterol levels by mobilizing a cellular cholesterol pool.

[2] = system: lipoprotein CE and FC in whole blood (red blood cells); test: Incubation of whole blood with PC or PI vesicles: lipoprotein CE and FC; format: cell-based, human
Experimental: Referring now to FIG. 4, there is graphically depicted the effect of PI or PC vesicles on lipoprotein CE and FC. Incubation of whole blood with PC vesicles results in a 60% increase in the CE content of the lipoproteins, while FC content is reduced by about 10%. […] Negatively charged phospholipids appeared to promote a reciprocal exchange of CE for FC between red blood cells and the lipoprotein particles. […] It has previously been taught that red blood cells cannot store CE and therefore utilize a membrane-bound CE hydrolase to maintain membrane FC levels. Without wishing to be bound by theory, the results therefore indicate that PI stimulates the degradation of lipoprotein CE.

[3] = system: faecal cholesterol output; test: Faecal cholesterol excretion after PI or PC injection; format: in vivo, rabbit; conditions: injection into a rabbit
Experimental: Rabbits are injected with 40 μmol PI or PC vesicles containing 400 μCi […]. Animals are sacrificed at 30 min, and bile is aspirated from the gall bladder. In addition the livers are harvested, homogenized and tissue radioactivity determined. Sterol excretion in the faeces is measured similarly except that faecal cholesterol levels are measured over a time period of 96 hours. Referring now to FIG. 7, there is graphically depicted the effect of PI injection associated with sterol excretion. […] PC injection into a rabbit had no effect on cholesterol excretion, while PI injection enhanced faecal cholesterol output by about 300% at 2 days post injection. The increase in cholesterol output returned to normal by about day 4.

[^3H]-FC in plasma = Clearance of [^3H]-FC from the blood of a rabbit; format: in vivo
Experimental: as §1, §2
Referring now to FIG. 5, there is shown the clearance of [^3H]-FC at various times after rabbits are injected with [^3H]-FC and either PI or PC vesicles. […] In comparison, rabbits injected with PC contain approximately 90% of the injected radioactivity after 1 h.

[4] = system: VLDL, LDL and HDL in human plasma; test: Lipoprotein charge in human plasma incubated with PI or DOTAP vesicles; format: biochemical; conditions: 24 h at 4° C.; for Lipoprotein Surface Charge LDL: no lipid 2.5; for Lipoprotein Surface Charge VLDL: no lipid 5.5; for Lipoprotein Surface Charge HDL: no lipid 11.8
Experimental: Different concentrations as shown below of negatively charged phospholipid (PI) or positively charged phospholipid (DOTAP) were added to human plasma and the surface charge on the lipoproteins was determined. The human plasma was incubated with PI or dioleoyl trimethylammonium-propane (DOTAP) vesicles for 24 h at 4° C. and then electrophoresed on 0.5% agarose. Lipoprotein charge was calculated from electrokinetic analyses.

lipoprotein lipase = biological target: T2, lipoprotein lipase (Homo sapiens, UniProt P06858); test: Lipid hydrolysis by lipoprotein lipase in plasma enriched with charged lipid; format: biochemical; conditions: not shown
T2 sequence (P06858 28-475): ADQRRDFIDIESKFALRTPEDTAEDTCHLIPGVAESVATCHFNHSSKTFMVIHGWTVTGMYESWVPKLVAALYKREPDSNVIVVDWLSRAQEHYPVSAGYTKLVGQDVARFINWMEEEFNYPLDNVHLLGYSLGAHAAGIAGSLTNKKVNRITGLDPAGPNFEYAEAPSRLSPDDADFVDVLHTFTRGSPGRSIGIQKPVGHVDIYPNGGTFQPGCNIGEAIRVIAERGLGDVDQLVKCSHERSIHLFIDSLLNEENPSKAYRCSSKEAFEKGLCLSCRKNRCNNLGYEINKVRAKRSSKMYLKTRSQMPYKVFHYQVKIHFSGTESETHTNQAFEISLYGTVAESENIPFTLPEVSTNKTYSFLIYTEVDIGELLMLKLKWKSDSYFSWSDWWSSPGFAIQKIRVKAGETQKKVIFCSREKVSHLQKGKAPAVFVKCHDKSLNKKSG
Excerpt: Referring now to FIG. 10, there is shown the effect of lipoprotein charge on hepatic lipase. High density lipoprotein particles were enriched to contain various amounts of anionic or cationic lipids and then characterized as substrates for pure human hepatic lipase. Decreasing the net negative charge on the lipoprotein was associated with a reduction in the lipolytic activity of is hepatic lipase. Lipoprotein charge can also be used to regulate lipoprotein lipase. […] Lipid hydrolysis by hepatic or lipoprotein lipase can therefore be affected by alterations in the charge properties of plasma lipoproteins.

HDL = test: Oral administration of PS: HDL charge in a human subject; format: in vivo
Experimental: Referring now to FIG. 9, there is graphically depicted the results of oral administration of 300 mg of PS to a human subject. Plasma samples were drawn before, and over a 24 hour period after, administration of PS. HDL charge was determined electrokinetically after electrophoresis of the plasma samples on 0.5% agarose. […] Thus, orally administered negatively charged lipids is absorbed intestinally and alters lipoprotein charge in the blood stream.

Compound: 1-palmitoyl-2-oleoyl-phosphatidylcholine [PC, reference compound]
- effect on lipoprotein net negative surface charge / migration of HDL, LDL and VLDL into agarose gel (HDL, LDL and VLDL): negligible effect; also recorded: did not significantly affect migration
- effect on plasma clotting time (prothrombin time) (Human plasma): no significant effect
- effect on LCAT activity / cholesteryl esterification [1]: No appreciable change
- increase in CE content of the lipoproteins [2]: 60%
- reduction of lipoprotein FC content [2]: about 10%
- effect on cholesterol excretion [3]: no effect
- [^3H]-FC in plasma, of the initial dose ([^3H]-FC in plasma; after about 1 h): approximately 90%
- time to clear [^3H]-FC to a comparable baseline level ([^3H]-FC in plasma; rabbit, in vivo): > 6 h

Compound: CCCCCCCC/C=C\CCCCCCCC(=O)OCC(C[N+](C)(C)C)OC(=O)CCCCCCC/C=C\CCCCCCCC (centres unmarked) [DOTAP, dioleoyl trimethylammonium propane]
- Lipoprotein Surface Charge LDL ([4]; 5 mg/ml): 2.2 -mV
- Lipoprotein Surface Charge VLDL ([4]; 5 mg/ml): 4.6 -mV
- Lipoprotein Surface Charge HDL ([4]; 5 mg/ml): 11.4 -mV
- Lipoprotein Surface Charge LDL ([4]; 10 mg/ml): 1.9 -mV
- Lipoprotein Surface Charge VLDL ([4]; 10 mg/ml): 4.6 -mV
- Lipoprotein Surface Charge HDL ([4]; 10 mg/ml): 11.2 -mV
- Lipoprotein Surface Charge LDL ([4]; 50 mg/ml): 1.9 -mV
- Lipoprotein Surface Charge VLDL ([4]; 50 mg/ml): 4.1 -mV
- Lipoprotein Surface Charge HDL ([4]; 50 mg/ml): 11.0 -mV
- Lipoprotein Surface Charge LDL ([4]; 100 mg/ml): 1.7 -mV
- Lipoprotein Surface Charge VLDL ([4]; 100 mg/ml): 4.1 -mV
- Lipoprotein Surface Charge HDL ([4]; 100 mg/ml): 10.9 -mV
- effect on lipid hydrolysis by lipoprotein lipase (lipoprotein lipase): inhibited lipid hydrolysis

Compound: phosphatidylserine [PS]
- HDL charge (HDL; by 6 hours after 300 mg oral, from −10.9 mV before, 'over' = more negative): over −12 mV
- HDL charge (HDL; by 24 hours after 300 mg oral): −11.4 mV
